What was measured:
Format in all cases: cell-based
Conditions in all cases: 48, 72 and 96 hrs, supramolecular taxane conjugate
DU-145 = assay: Cell viability assay (MTT), prostate cancer cell line
Method: (§1) Mammalian cells were grown in specific culture media, supplemented with 10% fetal bovine serum (FBS) and antibiotics in a humidified environment containing 5% CO2 at 37° C.
(§2) The effects of supramolecular taxane conjugates on the viability of cancer cells were measured using MTT assay (^6,7,8). Cells in 100 μl culture-media were plated in 96-well plates (3000-5000 cells/well) and allowed to adhere overnight in a humidified environment containing 5% CO2 at 37° C. Fresh media (100 μL) containing different concentrations of compounds were added to cells and incubated for 48, 72 and 96 hrs. Following incubation, cell viability was determined using the MTT assay. Similar assay was performed on normal human epithelial cells seeded in 100 μl media in 96-well plate (5000-10,000 cells per well), under identical incubation time and dosage of compounds, used for cancer cells to determine the effect of this targeted therapy on normal cells. The cell viability was plotted as dose-response curves using curve fitting.
(§3) The effects of compounds (New taxane 2 and 16) were evaluated in vitro in comparison with standard taxanes in breast cancer (MDA-MB-231), ovarian cancer (SKOV-3), lung cancer (A549), prostate cancer (DU-145), and colorectal cancer (HCT-116) cell lines.

SKOV-3 = assay: Cell viability assay (MTT), ovarian cancer cell line
Method: as §1, §2, §3

HCT-116 = assay: Cell viability assay (MTT), colorectal cancer cell line
Method: as §1, §2, §3

A549 = assay: Cell viability assay (MTT), lung cancer cell line
Method: as §1, §2, §3

MDA-MB-231 = assay: Cell viability assay (MTT), breast cancer cell line
Method: as §1, §2, §3

Measured: efficacy on cell viability versus standard taxanes

CC(=O)O[C@H]1C(=O)[C@@]2(C)[C@H]([C@H](OC(=O)c3ccccc3)[C@]3(O)C[C@H](OC(=O)[C@H](OC(=O)CCC(=O)NCC(=O)O[C@H]4CC[C@@]5(C)C(=CCC6C5CC[C@@]5(C)C6CC[C@@H]5[C@H](C)CCCC(C)C)C4)[C@@H](NC(=O)c4ccccc4)c4ccccc4)C(C)=C1C3(C)C)[C@]1(OC(C)=O)CO[C@@H]1C[C@@H]2O (stereo partly shown) [compound 16]
comparable efficacy to standard taxanes: all assays above

CO[C@H]1C(=O)[C@]2(C)[C@@H](OC)C[C@H]3OC[C@@]3(OC(C)=O)[C@H]2[C@H](OC(=O)c2ccccc2)[C@]2(O)C[C@H](OC(=O)[C@H](OC(=O)CCC(=O)NCC(=O)O[C@H]3CC[C@@]4(C)C(=CCC5C4CC[C@@]4(C)C5CC[C@@H]4[C@H](C)CCCC(C)C)C3)[C@@H](NC(=O)OC(C)(C)C)c3ccccc3)C(C)=C1C2(C)C (stereo partly shown) [compound 2]
comparable efficacy to standard taxanes: all assays above

From US10426753B2, “Supramolecular combinatorial therapeutics” (INVICTUS ONCOLOGY PVT. LTD., priority 2014, dated 2019)
